# Conditions: alkaline pH versus neutral and acidic pH
smiles,measurement,value
O=C([O-])CN(CCN(CC(=O)[O-])CC(=O)[O-])CC(=O)[O-].[Ag+].[Ag+].[Zn+2] [Ag2Zn(EDTA)],stability of the active ingredient-containing solution (precipitation),can be stabilized by an alkaline pH

# Source: patent US20260041811A1, “HYDROGEL FOR THE REDUCTION OF BIOFILMS” (PAUL HARTMANN AG, priority 2022, published 2026)
